Experimental data from ChEMBL document CHEMBL1201862, “PubChem BioAssay data set” (2004).
Active and inactive are the calls of the source.

How the values were obtained:
[1] = THP-1 cell cytotoxicity, dose response, cytotoxicity control for non-replicating M. tuberculosis project (AID 489025); format: functional
[2] = Vero E6 cell cytotoxicity, dose response, cytotoxicity control for non-replicating M. tuberculosis project, secondary assay (AID 492998); format: functional, VeroE6; settings: Vero C1008
cells = format: functional
Cytochrome P450 3A4 = Cytochrome P450 3A4 (Homo sapiens, UniProt P08684);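 note: CYP3A4 tested as one member of a cytochrome P450 panel screen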
Cytochrome P450 2C19 = Cytochrome P450 2C19 (Homo sapiens, UniProt P33261); assay: Cytochrome panel assay with activity outcomes. Panel member name: p450-cyp2c19 Compounds with AC50 equal or less than 10 uM are considered active; format: functional; settings: read-out: AC50
Cytochrome P450 2C9 = Cytochrome P450 2C9 (Homo sapiens, UniProt P11712)
Genome polyprotein = Genome polyprotein (dengue virus type 2, UniProt P29990); assay: flavivirus cap methylation enzyme inhibition – biochemical, confirmation dose response, primary screen (AID 588689); format: functional
[3] = molecular target: T1, Alkaline phosphatase, tissue-nonspecific isozyme (Homo sapiens, UniProt P05186); assay: potency against alkaline phosphatase TNAP – biochemical, luminescent, dose response, SAR follow-up (AID 1056)
T1 sequence (P05186 whole entry): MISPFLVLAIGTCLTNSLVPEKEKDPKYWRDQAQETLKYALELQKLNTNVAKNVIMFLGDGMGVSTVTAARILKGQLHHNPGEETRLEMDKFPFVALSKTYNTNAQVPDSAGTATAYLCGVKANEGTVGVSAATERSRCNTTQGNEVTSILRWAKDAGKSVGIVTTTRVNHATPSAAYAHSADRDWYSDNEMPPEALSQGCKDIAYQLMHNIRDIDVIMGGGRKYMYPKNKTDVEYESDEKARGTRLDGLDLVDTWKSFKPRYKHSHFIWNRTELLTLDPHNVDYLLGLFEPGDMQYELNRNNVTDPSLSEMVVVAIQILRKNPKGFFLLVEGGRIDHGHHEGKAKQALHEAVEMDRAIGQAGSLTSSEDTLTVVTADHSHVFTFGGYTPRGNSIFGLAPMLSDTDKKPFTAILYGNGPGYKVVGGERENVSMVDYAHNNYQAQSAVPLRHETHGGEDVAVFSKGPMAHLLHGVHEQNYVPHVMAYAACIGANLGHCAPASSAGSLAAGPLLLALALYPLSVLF

[4] = molecular target: Glyceraldehyde-3-phosphate dehydrogenase (Homo sapiens, UniProt P04406)
[5] = molecular target: Luciferin 4-monooxygenase (Photinus pyralis, UniProt P08659); assay: inhibition of purified Photinus pyralis luciferase – biochemical, luminescence, dose response (AID 1891)
[6] = Luminescence Cell-Based Dose Confirmation HTS to Identify Inhibitors of Platelet Dense Granule Release. [Related pubchem assays: 1663 (Primary HTS), 1678 (Summary of Project)]; format: functional
[7] = DRD fibroblast viability loss – cell-based, non-viral oncogenic, luminescence, dose response (AID 1934); format: functional; settings: Homo sapiens
[8] = molecular target: T2, Heat shock factor protein 1 (Mus musculus, UniProt P38532); assay: decrease of HSF1-responsive luciferase luminescence – cell-based, NIH3T3, dose retest, confirmation (AID 2382); format: functional;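 note: NIH3T3 fibroblasts with HSF1-driven luciferase reporter stressed by proteasome inhibitor MG132; luminescence from HSF1-driven luciferase expression after 8 hours of MG132 stress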
T2 sequence (P38532 whole entry): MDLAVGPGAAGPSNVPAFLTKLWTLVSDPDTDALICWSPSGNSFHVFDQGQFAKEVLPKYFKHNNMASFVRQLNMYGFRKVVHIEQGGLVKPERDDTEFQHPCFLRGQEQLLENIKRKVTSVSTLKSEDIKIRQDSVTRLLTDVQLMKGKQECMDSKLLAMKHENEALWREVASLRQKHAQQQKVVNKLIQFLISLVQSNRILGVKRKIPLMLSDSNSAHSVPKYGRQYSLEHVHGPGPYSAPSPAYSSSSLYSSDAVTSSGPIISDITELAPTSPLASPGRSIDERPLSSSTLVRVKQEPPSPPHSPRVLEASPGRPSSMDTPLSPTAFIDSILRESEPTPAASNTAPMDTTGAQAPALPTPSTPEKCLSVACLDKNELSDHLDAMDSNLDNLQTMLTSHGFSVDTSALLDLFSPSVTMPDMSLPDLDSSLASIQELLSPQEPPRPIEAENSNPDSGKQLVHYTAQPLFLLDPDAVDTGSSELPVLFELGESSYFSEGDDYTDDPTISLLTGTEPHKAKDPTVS

[9] = HEK-293T viability loss after treatment – luminescence, T-cell screen hits, cytotoxicity control for TCR NF-kB inhibitor project, dose response (AID 489026); format: functional, cell-based;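 note: cells exposed to compound about 14 hours before the viability readout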
BJ [10] = assay: BJ-TERT fibroblast viability loss – cell-based, RAS-independent, luminescence, dose response (AID 1933); format: functional; settings: Homo sapiens
BJ [11] = assay: cells; format: functional, cell-based; settings: Homo sapiens
BJ [12] = assay: BJ-TERT-LT-ST fibroblast viability loss – cell-based, RAS-independent, luminescence, dose response (AID 1935); format: functional; settings: Homo sapiens;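 note: BJ fibroblasts immortalized with TERT plus LT and ST oncogenes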
Cytochrome P450 1A2 = molecular target: T3, Cytochrome P450 1A2 (Homo sapiens, UniProt P05177);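 note: PubChem cytochrome P450 panel assay, CYP1A2 panel member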
T3 sequence (P05177 whole entry): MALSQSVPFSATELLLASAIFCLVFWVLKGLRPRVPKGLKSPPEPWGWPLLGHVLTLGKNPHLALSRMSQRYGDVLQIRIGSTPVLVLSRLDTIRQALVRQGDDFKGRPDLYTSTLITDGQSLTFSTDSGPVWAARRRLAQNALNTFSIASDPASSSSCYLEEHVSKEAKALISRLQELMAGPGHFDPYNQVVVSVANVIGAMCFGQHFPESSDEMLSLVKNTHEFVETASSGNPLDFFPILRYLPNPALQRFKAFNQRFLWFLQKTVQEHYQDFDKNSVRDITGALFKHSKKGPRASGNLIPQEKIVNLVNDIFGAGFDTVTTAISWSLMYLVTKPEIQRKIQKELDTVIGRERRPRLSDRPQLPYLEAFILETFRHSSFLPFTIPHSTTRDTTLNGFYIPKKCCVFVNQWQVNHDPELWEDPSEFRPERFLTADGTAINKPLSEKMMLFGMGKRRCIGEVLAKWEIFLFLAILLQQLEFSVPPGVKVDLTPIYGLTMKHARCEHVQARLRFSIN

[13] = reduction of Shn3 3'UTR-driven luciferase in osteoblasts – cell-based, Clone20 osteoblasts, firefly luciferase, cherry-picked, dose response (AID 624132); format: functional;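 note: firefly luciferase luminescence from reporter carrying the Shn3 3'UTR in osteoblasts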
[14] = loss of viability in HepG2 cells – cell-based, CellTiter-Glo, cherry-picked, cytotoxicity control for Shn3 inhibitor project, dose response (AID 624134); format: functional
Protein skinhead-1 = molecular target: T4, Protein skinhead-1 (Caenorhabditis elegans, UniProt P34707); format: functional
T4 sequence (P34707 whole entry): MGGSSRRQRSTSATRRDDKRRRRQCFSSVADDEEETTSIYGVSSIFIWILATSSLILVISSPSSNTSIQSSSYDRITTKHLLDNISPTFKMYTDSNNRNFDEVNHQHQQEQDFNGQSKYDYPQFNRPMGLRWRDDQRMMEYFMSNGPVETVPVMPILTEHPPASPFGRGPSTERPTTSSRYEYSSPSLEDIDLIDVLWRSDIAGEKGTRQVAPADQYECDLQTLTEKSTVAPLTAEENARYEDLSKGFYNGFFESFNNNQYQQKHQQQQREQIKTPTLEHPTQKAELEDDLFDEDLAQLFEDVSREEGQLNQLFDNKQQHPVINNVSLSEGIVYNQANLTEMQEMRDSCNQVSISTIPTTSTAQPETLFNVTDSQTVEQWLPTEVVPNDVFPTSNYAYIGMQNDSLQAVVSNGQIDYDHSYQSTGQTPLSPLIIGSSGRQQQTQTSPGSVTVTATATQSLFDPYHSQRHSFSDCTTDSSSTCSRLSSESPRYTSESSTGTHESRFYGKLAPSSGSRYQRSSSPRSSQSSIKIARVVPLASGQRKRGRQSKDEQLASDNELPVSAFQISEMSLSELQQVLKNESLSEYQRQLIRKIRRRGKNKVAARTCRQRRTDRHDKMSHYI

[15] = non-specific 3'UTR reporter inhibition in Clone20-Shn3RL – cell-based, Renilla luciferase, cherry-picked, counter-screen for Shn3 inhibitor project, dose response (AID 624133); format: functional
[16] = molecular target: T5, High affinity choline transporter 1 (Homo sapiens, UniProt Q9GZV3); assay: human choline transporter blockers, potency – cell-based, 5-point CRC, membrane potential dye, dose response (AID 504840); format: functional
T5 sequence (Q9GZV3 whole entry): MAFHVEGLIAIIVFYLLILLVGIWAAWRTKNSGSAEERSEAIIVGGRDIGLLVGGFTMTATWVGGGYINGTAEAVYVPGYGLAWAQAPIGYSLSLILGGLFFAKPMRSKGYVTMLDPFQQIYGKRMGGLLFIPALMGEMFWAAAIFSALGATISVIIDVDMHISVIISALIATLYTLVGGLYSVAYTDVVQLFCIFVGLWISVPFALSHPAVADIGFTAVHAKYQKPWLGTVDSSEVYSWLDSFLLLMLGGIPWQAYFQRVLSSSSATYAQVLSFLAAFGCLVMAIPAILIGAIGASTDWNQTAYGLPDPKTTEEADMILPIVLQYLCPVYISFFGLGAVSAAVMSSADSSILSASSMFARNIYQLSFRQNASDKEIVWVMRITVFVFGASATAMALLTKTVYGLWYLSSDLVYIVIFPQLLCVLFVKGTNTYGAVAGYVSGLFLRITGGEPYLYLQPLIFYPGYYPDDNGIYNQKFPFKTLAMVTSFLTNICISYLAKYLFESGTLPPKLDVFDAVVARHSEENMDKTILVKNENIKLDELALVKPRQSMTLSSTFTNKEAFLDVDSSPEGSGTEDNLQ

[17] = molecular target: Glucose-6-phosphate 1-dehydrogenase (Homo sapiens, UniProt P11413); assay: inhibition of Homo sapiens G6PD, dose series – biochemical, fluorescence, selectivity assay for P. falciparum G6PD inhibitor project, dose response (AID 504792); format: functional
Sequence of Glucose-6-phosphate 1-dehydrogenase (P11413 whole entry): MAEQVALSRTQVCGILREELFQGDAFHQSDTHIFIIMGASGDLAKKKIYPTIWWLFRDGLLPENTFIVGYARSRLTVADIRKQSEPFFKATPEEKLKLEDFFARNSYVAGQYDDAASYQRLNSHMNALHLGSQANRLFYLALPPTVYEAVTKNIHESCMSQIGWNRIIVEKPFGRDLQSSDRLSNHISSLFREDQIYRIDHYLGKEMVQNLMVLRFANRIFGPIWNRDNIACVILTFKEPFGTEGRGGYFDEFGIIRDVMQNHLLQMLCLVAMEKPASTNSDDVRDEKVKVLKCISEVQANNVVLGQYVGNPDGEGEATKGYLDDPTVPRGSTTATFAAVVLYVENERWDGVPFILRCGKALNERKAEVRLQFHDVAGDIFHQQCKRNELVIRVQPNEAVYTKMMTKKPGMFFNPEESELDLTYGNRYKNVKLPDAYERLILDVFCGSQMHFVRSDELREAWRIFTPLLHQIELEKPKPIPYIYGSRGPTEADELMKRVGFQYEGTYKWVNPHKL

Sequence of Cytochrome P450 3A4 (P08684 whole entry): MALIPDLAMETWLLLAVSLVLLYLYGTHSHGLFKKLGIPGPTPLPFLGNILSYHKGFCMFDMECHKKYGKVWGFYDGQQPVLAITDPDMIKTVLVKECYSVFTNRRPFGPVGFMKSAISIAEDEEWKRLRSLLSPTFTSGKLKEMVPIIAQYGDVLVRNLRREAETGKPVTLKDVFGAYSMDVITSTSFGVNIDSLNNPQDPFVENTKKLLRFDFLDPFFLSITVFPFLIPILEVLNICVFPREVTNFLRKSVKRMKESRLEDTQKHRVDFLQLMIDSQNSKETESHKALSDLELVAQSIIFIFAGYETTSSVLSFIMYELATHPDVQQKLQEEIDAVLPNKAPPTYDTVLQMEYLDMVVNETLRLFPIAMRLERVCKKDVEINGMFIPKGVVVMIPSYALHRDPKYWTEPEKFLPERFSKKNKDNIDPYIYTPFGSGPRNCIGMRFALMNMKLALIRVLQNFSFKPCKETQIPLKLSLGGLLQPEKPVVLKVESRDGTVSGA
Sequence of Cytochrome P450 2C19 (P33261 whole entry): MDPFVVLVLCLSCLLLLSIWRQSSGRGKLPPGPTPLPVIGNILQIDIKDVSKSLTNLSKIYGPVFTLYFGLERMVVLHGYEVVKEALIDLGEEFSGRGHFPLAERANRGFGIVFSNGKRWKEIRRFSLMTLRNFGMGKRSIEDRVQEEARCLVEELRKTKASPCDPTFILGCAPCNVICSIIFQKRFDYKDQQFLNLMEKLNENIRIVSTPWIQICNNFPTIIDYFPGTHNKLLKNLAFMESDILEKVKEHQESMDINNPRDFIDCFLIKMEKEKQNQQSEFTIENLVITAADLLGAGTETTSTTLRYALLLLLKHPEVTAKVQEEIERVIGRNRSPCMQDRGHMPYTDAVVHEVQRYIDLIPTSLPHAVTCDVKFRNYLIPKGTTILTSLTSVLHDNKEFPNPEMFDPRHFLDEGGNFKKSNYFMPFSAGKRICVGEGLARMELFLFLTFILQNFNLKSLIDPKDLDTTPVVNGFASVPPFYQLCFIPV
Sequence of Glyceraldehyde-3-phosphate dehydrogenase (P04406 whole entry): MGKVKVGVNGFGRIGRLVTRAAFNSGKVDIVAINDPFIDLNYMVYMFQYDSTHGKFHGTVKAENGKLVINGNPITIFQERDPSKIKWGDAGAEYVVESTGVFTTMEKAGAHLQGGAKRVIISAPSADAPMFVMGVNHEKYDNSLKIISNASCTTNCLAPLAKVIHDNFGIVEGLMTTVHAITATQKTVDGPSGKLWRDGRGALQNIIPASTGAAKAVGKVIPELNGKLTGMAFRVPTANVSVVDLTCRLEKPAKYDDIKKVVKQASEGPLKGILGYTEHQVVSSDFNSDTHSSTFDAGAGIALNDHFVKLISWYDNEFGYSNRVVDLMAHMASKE
Sequence of Cytochrome P450 2C9 (P11712 whole entry): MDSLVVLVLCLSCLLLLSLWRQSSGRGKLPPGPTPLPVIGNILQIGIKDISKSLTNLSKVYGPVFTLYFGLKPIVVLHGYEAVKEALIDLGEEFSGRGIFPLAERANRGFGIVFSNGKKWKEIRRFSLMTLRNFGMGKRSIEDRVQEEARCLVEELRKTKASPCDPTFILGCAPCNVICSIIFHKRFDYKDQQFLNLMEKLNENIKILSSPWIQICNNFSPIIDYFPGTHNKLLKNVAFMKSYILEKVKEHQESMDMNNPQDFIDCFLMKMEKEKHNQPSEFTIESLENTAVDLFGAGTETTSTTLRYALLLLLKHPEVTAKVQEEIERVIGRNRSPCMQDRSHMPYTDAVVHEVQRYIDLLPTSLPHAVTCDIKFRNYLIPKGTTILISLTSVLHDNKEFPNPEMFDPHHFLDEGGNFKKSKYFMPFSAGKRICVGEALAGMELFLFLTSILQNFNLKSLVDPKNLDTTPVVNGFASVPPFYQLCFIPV
Sequence of Genome polyprotein (P29990 2492-3391 limits assumed): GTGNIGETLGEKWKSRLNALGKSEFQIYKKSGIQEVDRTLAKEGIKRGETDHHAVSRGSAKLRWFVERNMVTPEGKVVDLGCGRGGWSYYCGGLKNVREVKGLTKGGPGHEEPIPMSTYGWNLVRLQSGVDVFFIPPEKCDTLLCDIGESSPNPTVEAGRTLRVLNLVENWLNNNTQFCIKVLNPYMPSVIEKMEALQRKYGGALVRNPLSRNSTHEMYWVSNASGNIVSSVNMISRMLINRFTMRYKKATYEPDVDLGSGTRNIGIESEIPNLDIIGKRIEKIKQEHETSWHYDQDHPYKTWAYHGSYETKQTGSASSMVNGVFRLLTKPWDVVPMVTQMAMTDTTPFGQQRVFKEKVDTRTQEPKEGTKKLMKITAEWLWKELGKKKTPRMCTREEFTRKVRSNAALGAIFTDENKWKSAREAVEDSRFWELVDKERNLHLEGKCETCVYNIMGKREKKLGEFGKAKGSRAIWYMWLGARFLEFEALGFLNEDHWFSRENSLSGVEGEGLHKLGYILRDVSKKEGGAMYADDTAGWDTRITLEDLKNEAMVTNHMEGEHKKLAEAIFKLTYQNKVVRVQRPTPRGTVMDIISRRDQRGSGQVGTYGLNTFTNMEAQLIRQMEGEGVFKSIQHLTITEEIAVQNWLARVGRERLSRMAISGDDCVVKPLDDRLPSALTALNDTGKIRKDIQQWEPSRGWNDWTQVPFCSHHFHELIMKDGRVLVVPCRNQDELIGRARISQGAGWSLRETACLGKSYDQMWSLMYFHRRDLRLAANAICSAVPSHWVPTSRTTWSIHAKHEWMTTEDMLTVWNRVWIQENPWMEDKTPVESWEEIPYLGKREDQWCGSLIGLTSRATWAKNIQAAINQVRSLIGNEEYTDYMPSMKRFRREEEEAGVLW
Sequence of Luciferin 4-monooxygenase (P08659 whole entry): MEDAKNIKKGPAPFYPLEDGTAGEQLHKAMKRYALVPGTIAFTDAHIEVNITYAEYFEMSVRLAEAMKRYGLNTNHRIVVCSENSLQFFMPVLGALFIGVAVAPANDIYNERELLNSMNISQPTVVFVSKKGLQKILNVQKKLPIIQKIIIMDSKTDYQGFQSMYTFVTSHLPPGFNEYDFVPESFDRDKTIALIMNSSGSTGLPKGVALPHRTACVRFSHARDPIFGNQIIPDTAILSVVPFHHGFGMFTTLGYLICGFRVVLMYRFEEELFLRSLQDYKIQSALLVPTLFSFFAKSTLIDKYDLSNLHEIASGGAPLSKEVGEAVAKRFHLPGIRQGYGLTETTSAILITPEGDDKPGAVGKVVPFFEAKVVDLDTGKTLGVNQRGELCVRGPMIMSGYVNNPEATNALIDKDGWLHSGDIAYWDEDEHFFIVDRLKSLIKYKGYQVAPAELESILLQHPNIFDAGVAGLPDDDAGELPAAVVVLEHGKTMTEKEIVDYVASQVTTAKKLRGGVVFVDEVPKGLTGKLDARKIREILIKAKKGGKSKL

With Cc1cc(NC(=O)c2ccccc2F)n(-c2nc3ccccc3[nH]2)n1 the CC50 [1] was > 40 µM (active), the CC50 [2] was 17.6 µM (active) and the IC50 (cells) was > 50 µM (active).

For CCOc1ccc(CC(=O)C2C(=O)CCCC2=O)cc1OCC, the AC50 (Cytochrome P450 3A4) was “inconclusive” and the AC50 (Cytochrome P450 2C19) was 39.8 µM (inconclusive).

In the case of CC(=O)O[C@H]1CC[C@@]2(C)C(=CC[C@@H]3[C@H]2CC[C@]2(C)C(=O)CC[C@H]32)C1, the AC50 (Cytochrome P450 3A4) is reported as “inconclusive”, the AC50 (Cytochrome P450 2C9) is reported as 15.8 µM (inconclusive) and the AC50 (Cytochrome P450 2C19) is reported as 5.01 µM (inconclusive).

In the case of CCCCN(CCCC)c1ccc(C(=O)c2ccccc2C(=O)O)c(O)c1, the IC50 (Genome polyprotein) is reported as 44.1 µM (active).

For O=C1c2ccccc2C(=O)N1c1nc(-c2cccnc2)n[nH]1, the IC50 [3] was > 100 µM (inactive) and the IC50 [4] was > 100 µM (not active).

For Cc1ccc(-c2cc3c(N=O)c4ccccc4c-3[nH]n2)cc1, the EC50 [5] was 207 nM (active), the EC50 [6] was 3.05 µM (active) and the EC50 [7] was 6.32 µM (active). For the same molecule, the EC50 [8] was 4.95 µM (active), the IC50 [9] was > 80 µM (inactive) and the EC50 (BJ [10]) was 6.45 µM (active). The EC50 (BJ [11]) was 6.73 µM (active) and the EC50 (BJ [12]) was 13.1 µM (active).

In the case of Cc1c(C(=O)Nc2cccc(C(F)(F)F)c2)oc2ccc(S(=O)(=O)N3CCOCC3)cc12, the AC50 (Cytochrome P450 3A4) is reported as “inconclusive”, the AC50 (Cytochrome P450 1A2) is reported as 10 µM (inconclusive) and the AC50 [13] is reported as 3.8 µM (active). For the same molecule, the AC50 [14] was > 70 µM (inactive), the IC50 (Protein skinhead-1) was > 100 µM (inactive) and the AC50 [15] was > 70 µM (inactive).

In the case of CC1(C)CC(=O)c2c(n[nH]c2-c2cccs2)C1, the IC50 [3] is reported as 5.65 µM (active) and the IC50 [4] is reported as > 10 µM (inconclusive).

In the case of C=Cn1cc[n+](CC(=O)c2ccc(Br)cc2)c1, the IC50 [16] is reported as 15.1 µM (active).

For O=C(N/N=C/c1cccc([N+](=O)[O-])c1)C(=O)N1CCCCCC1, the IC50 [17] was > 80 µM (inactive).
